Test [1] addresses Tyrosine-protein kinase Fgr (Homo sapiens, UniProt P09769). The experiment in a line: Inhibition of human recombinant FGR (456 to 770) at 500 nM by radiometric scintillation counting analysis relative to control.
Test [2] has as its target Mast/stem cell growth factor receptor Kit (Homo sapiens) (UniProt P10721). The experiment in a line: Inhibition of human recombinant c-Kit at 50 nM by radiometric scintillation counting analysis relative to control.
The target in test [3] is Platelet-derived growth factor receptor alpha (Homo sapiens) (UniProt P16234). The experiment in a line: Inhibition of human recombinant PDGFRalpha (550 to end) at 50 nM by radiometric scintillation counting analysis relative to control.
Platelet-derived growth factor receptor alpha (Homo sapiens), sequence (P16234 whole entry): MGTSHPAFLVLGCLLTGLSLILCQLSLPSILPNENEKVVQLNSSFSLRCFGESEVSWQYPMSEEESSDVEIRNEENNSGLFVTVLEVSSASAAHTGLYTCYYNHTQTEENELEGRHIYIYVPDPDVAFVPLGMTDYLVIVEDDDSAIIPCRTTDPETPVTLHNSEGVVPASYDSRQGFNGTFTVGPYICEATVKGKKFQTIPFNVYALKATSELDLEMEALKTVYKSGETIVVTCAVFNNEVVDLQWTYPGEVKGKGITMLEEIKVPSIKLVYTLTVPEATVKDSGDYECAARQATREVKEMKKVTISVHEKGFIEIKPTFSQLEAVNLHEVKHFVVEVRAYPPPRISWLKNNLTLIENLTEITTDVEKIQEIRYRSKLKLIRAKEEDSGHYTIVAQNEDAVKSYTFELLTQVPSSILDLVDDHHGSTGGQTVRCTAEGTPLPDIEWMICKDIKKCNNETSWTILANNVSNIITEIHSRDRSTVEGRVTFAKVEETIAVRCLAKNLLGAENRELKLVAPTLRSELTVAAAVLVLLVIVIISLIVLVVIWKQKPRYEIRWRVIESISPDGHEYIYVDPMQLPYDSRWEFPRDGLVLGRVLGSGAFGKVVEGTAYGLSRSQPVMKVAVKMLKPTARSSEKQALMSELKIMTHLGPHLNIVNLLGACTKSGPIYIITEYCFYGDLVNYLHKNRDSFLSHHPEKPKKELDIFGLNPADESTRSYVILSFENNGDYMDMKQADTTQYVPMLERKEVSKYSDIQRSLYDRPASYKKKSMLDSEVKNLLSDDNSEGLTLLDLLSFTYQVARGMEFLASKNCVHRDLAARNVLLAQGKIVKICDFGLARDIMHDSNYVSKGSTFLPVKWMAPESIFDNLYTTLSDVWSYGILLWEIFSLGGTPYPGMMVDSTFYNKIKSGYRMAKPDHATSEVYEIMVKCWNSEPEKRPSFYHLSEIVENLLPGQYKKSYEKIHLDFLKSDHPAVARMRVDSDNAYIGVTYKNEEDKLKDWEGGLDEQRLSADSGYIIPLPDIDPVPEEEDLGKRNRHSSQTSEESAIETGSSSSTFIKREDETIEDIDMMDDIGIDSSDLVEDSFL
The target of test [4] is Tyrosine-protein kinase CSK (Homo sapiens, UniProt P41240). The experiment in a line: Inhibition of human full length recombinant CSK at 500 nM by radiometric scintillation counting analysis relative to control.
Tyrosine-protein kinase CSK, sequence (P41240 2-450 limits assumed): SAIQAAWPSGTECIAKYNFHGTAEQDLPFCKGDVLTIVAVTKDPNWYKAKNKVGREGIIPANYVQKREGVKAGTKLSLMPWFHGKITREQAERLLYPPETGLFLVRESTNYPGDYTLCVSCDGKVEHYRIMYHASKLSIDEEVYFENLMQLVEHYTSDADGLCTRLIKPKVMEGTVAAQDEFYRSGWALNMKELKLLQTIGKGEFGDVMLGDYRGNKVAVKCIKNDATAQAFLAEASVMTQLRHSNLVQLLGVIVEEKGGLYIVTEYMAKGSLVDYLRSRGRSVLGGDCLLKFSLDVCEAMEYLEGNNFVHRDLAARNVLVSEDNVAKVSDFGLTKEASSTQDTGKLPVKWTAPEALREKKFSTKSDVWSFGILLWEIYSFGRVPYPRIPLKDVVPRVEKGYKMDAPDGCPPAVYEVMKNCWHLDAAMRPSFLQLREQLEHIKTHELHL
For test [5], the target named is Tyrosine-protein kinase HCK (Homo sapiens, UniProt P08631). The experiment in a line: Inhibition of human recombinant HCK (230 to 497) at 50 nM by radiometric scintillation counting analysis relative to control.
Test [6] has as its target T1, Tyrosine-protein kinase ITK/TSK (Homo sapiens) (UniProt Q08881).
T1 sequence (whole entry): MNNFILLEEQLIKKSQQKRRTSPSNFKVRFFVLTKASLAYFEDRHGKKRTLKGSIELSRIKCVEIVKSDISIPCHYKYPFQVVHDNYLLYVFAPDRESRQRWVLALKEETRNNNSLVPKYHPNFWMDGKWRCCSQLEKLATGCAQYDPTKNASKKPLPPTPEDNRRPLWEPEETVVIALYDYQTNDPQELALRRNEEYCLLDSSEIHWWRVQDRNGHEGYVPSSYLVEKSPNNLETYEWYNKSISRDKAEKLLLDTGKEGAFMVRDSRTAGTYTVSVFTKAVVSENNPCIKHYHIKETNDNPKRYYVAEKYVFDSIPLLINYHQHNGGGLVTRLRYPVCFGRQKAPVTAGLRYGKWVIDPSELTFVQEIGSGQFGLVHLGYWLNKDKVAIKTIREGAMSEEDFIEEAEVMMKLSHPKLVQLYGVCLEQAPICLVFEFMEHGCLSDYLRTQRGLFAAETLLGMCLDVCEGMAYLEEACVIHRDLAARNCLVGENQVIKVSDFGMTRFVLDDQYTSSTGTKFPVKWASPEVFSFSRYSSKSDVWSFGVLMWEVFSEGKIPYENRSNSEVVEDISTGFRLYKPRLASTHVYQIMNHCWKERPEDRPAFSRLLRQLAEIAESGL
The experiment in a line: Inhibition of human recombinant ITK (352 to 617) at 500 nM by radiometric scintillation counting analysis relative to control.

Test [7] has as its target Protein-tyrosine kinase 6 (Homo sapiens) (UniProt Q13882). The experiment in a line: Inhibition of human recombinant BRK (174 to 734) at 500 nM by radiometric scintillation counting analysis relative to control.
Test [8] has as its target Macrophage colony-stimulating factor 1 receptor (Homo sapiens, UniProt P07333). The experiment in a line: Inhibition of human recombinant CSF1R using ATP/Ulight-TK peptide at 5 nM incubated for 15 mins relative to control.
For test [9], the target named is T2, Cytoplasmic tyrosine-protein kinase BMX (Homo sapiens) (UniProt P51813).
T2 sequence (whole entry): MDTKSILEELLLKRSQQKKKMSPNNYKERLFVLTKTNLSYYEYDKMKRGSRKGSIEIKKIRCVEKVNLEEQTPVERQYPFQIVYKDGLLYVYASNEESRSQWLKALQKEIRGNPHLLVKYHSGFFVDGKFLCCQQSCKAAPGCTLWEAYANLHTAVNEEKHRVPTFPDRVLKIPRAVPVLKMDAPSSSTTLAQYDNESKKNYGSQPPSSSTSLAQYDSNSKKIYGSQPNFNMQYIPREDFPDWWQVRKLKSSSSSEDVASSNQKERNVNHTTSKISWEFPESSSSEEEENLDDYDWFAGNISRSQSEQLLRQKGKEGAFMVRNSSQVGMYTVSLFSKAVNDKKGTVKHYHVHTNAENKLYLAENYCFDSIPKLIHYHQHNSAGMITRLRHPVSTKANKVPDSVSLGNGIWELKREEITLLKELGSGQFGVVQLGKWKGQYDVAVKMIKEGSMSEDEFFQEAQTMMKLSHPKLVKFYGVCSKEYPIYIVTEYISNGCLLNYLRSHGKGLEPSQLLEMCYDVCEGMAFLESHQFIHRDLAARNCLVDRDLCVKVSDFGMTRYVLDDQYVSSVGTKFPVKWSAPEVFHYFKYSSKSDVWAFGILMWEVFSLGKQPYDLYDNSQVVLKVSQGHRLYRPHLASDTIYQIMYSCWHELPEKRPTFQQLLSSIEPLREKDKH
The experiment in a line: Inhibition of human full length recombinant Bmx at 500 nM by radiometric scintillation counting analysis relative to control.

Test [10] addresses Tyrosine-protein kinase Yes (Homo sapiens, UniProt P07947). The experiment in a line: Inhibition of human full length recombinant Yes at 50 nM by radiometric scintillation counting analysis relative to control.
The target in test [11] is T3, Tyrosine-protein kinase ZAP-70 (Homo sapiens) (UniProt P43403).
T3 sequence (whole entry): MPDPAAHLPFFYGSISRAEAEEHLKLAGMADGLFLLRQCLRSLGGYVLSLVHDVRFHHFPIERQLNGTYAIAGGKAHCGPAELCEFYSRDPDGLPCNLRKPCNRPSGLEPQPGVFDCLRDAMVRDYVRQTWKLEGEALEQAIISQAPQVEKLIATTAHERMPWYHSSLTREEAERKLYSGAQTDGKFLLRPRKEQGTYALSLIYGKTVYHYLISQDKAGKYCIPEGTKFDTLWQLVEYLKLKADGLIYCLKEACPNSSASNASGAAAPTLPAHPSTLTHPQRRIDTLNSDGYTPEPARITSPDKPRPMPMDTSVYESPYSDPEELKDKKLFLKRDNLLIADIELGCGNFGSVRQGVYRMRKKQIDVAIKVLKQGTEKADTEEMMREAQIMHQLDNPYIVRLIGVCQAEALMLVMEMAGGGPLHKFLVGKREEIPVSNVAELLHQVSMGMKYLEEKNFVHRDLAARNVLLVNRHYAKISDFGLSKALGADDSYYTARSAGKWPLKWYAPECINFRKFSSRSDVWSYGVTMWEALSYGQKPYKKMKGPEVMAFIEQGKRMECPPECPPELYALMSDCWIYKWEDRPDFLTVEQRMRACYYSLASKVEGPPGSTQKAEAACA
The experiment in a line: Inhibition of human full length recombinant ZAP70 at 50 nM by radiometric scintillation counting analysis relative to control.

Structures are written as SMILES.

Tyrosine-protein kinase Yes, sequence (P07947 2-543 limits assumed): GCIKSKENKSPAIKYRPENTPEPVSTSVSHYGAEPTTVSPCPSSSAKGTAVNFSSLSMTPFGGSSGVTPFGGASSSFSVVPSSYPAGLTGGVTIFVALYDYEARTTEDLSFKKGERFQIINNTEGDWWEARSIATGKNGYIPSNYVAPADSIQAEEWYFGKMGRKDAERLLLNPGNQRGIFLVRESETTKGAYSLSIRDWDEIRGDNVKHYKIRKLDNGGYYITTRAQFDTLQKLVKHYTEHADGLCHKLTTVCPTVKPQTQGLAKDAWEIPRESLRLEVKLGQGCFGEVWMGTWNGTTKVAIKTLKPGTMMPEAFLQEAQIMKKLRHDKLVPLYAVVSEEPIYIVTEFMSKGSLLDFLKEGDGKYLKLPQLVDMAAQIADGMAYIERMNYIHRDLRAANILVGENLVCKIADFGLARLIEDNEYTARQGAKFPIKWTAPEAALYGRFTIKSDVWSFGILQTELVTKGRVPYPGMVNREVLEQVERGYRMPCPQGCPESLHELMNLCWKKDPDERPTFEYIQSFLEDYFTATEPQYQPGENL
Mast/stem cell growth factor receptor Kit (Homo sapiens), sequence (P10721 whole entry): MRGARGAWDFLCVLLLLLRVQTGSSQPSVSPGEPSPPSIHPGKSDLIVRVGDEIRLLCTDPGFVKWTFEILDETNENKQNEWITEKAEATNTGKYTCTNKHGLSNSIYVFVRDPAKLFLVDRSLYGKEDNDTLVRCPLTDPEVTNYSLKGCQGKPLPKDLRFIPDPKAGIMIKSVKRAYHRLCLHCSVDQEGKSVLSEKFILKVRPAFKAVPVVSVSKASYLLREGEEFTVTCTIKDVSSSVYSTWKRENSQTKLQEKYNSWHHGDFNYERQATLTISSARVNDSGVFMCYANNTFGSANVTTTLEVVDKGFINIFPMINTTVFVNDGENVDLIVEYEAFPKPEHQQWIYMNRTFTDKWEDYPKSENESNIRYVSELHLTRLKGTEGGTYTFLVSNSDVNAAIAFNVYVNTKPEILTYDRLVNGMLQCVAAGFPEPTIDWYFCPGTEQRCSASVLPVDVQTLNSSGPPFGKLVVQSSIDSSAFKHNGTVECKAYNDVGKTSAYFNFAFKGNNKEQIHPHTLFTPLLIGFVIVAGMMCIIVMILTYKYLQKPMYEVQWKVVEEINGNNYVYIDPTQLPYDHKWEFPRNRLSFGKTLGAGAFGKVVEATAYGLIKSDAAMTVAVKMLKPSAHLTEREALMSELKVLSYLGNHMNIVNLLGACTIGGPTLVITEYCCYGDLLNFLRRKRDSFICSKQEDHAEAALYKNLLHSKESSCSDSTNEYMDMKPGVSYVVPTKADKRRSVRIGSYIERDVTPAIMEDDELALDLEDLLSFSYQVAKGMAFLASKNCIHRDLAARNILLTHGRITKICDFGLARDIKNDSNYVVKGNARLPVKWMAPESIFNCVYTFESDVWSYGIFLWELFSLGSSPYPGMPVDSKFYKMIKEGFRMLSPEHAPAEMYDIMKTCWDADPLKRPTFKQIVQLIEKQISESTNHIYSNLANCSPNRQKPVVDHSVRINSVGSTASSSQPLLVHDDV
Tyrosine-protein kinase Fgr, sequence (P09769 2-529 limits assumed): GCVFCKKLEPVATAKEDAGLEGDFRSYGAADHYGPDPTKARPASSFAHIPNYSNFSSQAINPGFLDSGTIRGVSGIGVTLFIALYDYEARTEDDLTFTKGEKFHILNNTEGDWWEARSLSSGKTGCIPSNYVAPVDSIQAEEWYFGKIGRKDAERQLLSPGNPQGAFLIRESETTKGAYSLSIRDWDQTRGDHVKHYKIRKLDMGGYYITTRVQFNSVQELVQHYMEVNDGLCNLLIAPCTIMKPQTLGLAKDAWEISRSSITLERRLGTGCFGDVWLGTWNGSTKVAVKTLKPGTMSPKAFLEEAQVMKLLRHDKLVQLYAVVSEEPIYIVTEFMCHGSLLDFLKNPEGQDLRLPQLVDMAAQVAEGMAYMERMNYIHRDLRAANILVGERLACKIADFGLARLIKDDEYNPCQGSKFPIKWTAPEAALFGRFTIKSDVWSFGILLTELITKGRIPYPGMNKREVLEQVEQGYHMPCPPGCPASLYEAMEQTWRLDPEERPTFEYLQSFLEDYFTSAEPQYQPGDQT
Protein-tyrosine kinase 6 (Homo sapiens), sequence (Q13882 whole entry, looked up): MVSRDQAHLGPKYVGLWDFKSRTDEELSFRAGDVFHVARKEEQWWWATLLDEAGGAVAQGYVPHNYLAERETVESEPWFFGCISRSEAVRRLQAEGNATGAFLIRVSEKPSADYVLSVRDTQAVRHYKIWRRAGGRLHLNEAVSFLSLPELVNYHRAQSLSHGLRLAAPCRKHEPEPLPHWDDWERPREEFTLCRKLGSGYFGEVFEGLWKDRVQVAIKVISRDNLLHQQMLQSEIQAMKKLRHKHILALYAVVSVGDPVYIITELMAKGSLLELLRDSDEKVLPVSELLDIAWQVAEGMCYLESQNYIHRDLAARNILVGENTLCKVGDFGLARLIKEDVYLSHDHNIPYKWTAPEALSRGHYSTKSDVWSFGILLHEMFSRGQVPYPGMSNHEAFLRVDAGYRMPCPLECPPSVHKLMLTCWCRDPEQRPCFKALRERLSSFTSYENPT
Macrophage colony-stimulating factor 1 receptor, sequence (P07333 whole entry): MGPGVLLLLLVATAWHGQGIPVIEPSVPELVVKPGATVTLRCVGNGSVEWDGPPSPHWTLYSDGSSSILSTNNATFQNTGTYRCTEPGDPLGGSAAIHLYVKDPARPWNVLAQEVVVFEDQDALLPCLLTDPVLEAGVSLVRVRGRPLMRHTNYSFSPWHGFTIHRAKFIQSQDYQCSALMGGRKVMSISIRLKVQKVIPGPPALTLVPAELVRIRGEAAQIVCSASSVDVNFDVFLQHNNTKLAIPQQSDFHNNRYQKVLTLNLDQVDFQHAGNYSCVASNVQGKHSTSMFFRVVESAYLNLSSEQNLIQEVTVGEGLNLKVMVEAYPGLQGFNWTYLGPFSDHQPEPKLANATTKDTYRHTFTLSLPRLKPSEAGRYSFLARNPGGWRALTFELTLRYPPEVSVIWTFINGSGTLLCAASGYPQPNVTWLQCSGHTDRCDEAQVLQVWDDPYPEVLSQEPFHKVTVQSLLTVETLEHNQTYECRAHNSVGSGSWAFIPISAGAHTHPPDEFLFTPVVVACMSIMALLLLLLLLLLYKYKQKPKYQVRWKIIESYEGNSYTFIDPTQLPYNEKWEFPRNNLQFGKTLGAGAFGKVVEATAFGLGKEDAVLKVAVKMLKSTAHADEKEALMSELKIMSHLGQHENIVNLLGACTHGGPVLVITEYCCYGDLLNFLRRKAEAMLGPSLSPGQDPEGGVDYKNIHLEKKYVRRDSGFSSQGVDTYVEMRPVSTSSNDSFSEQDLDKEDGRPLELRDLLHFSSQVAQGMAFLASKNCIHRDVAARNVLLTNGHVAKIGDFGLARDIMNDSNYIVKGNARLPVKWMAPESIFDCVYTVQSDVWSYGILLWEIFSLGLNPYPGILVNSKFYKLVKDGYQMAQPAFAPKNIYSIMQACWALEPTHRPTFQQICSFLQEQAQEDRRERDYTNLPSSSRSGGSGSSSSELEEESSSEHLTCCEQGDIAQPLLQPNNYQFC

With `Cc1ccc(C(=O)Nc2cc(C(F)(F)F)cc(C(F)(F)F)c2)cc1C#Cc1cc(-c2cnn(C)c2)cnc1N`, the inhibition was 101% in [1]; -10% in [2]; 1% in test [3]; 71% in [4]; 92% in test [5]; 2% in test [6]. Further, the inhibition in [7] stood at 22%; in test [8] it was 25%; in test [9], 89%; in test [10], 14%; in test [11], 12%.

As to `Cc1ccc(C(=O)Nc2ccc(Cl)cc2Cl)cc1C#Cc1cc(-c2cnn(C)c2)cnc1N`, the inhibition in test [1] amounted to 46%; in test [2] it was 21%; in test [3] it was 21%; in test [4], 39%; in [5] it was 64%; in test [6], 19%. The inhibition in [7] came out at 85%; in [8] it was 34%; in test [9], 23%; in test [10], 18%; in test [11], 2%.

As to `Cc1ccc(C(=O)Nc2ccc(OC(F)(F)F)cc2)cc1C#Cc1cc(-c2cnn(C)c2)cnc1N`, the inhibition in test [1] is 77%; in test [2], 15%; in [3], 32%; in test [4] it was 23%; in test [5] it was 92%; in test [6] it was -4%. In addition, the inhibition was found to be 92% in test [7]; 39% in [8]; 20% in test [9]; 39% in [10]; 6% in test [11].

(Values after ChEMBL document CHEMBL4837249, “Discovery of Potent Antiallergic Agents Based on an o-Aminopyridinyl Alkynyl Scaffold” (J Med Chem, 2021).)
